Assay results: patent US5726195A, “Aminoacyl adenylate mimics as novel antimicrobial and antiparasitic agents” (Cubist Pharmaceuticals, Inc., priority 1996, dated 1998)
pIC50: −log10 of the molar value.

Experiments:
[1] = biological target: E. Coli. IleRS (isoleucyl-tRNA synthetase) (Escherichia coli, UniProt P00956); assay: Inhibition of isoleucyl-tRNA synthetase (aminoacylation of tRNA with [3H]isoleucine); format: biochemical; settings: read-out: IC50 E.Coli. IleRS; E. coli enzyme; irreversible inhibitors: values are 50% of the active enzyme concentration
Sequence of E. Coli. IleRS (isoleucyl-tRNA synthetase) (P00956 whole entry): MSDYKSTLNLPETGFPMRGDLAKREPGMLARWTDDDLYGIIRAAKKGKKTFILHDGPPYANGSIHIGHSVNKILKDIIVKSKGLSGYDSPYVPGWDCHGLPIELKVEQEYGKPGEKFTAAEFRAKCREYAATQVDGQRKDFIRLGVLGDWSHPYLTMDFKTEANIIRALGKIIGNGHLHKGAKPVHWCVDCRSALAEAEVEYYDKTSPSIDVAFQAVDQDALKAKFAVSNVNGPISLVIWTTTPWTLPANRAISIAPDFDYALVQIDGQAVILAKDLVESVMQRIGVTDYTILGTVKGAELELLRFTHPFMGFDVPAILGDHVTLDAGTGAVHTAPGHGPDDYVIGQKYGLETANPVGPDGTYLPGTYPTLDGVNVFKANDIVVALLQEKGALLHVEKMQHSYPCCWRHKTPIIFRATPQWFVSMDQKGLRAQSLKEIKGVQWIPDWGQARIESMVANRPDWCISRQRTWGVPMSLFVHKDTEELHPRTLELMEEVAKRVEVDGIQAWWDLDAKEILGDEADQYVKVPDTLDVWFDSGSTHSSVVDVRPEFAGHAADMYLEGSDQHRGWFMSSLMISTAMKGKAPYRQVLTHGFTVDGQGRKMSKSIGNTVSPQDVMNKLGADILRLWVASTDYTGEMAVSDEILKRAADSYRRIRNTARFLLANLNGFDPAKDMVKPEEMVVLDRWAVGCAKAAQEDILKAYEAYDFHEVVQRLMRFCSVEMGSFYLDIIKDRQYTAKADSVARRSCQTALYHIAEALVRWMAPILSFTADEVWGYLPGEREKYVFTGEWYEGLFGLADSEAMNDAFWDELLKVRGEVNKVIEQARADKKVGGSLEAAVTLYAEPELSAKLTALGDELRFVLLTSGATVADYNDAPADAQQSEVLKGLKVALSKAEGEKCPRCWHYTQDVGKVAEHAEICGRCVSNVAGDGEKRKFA
Outline: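 Enzyme (0.08-2.0 nM, preferably 0.4 nM) preincubated 20 min at 25° C. with compound, then reacted at 25° C. with 4 mM ATP, 5-20 μM [3H]isoleucine, 90 μM crude or 2 μM specific tRNA in HEPES pH 7.5. TCA-precipitable radioactivity counted; IC50 relative to uninhibited activity.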

[2] = test system: Streptococcus pyogenes (ATCC 8668); assay: Mouse protection test against wild type Streptococcus pyogenes; format: in vivo, Streptococcus pyogenes; female CD-1 mice; settings: for Protective % / Number of Alive: repeated at 4 hours, 7 days; for Number of Alive: of 5 mice
From the text: The mouse protection test is an industry standard for measuring the efficacy of a test compound in vivo [for examples of this model see J. J. Clement, et al., Antimicrobial Agents and Chemotherapy, 38 (5), 1071-1078, (1994)]. As exemplified below, this test was used to show the in vivo efficacy of the compounds of the present invention against bacteria.
The in vivo antibacterial activity of compound X was established by infecting female CD-1 mice (Charles River Lab, Massachusettes) weighing 20-24 g intraperitoneally with Streptococcus pyogenes inoculum. The inoculum was prepared from Streptococcus pyogenes (ATCC 8668) which was cultured in brain heart infusion broth (Baltimore Biological Laboratories,Maryland) at 37° C. for 18 hr, and then 0.1 ml of the overnight culture was diluted with the medium to 5.0 ml for reading its OD at 600 nm (0.017). The turbidity of a 0.5 McFarland standard is equivalent to OD600 0.1, or 10^8 cfu/ml. Then, 8×10^5 cfu of the bacteria (940 μl of 1:1000 overnight culture) was added to 20 ml of phosphate buffered saline (Sigma P-0261 ) containing 5% hog gastric mucin (Sigma M-2378). All animals were injected with 0.5 ml of the inoculum, equivalent to 2×10^4 cfu/mouse which is the dose causing ~100% death of the animals without treatment.
Compound X (50 mg) was dissolved in 5.0 ml of 0.05M Tris.HCl (pH 8.8) to give a solution of 10 mg/ml. This solution was serially diluted with 0.05 M Tris.HCl by 5-fold (1.0 ml to 5.0 ml) to give 2, 0.4 and 0.08 mg/ml solutions. The known antibiotic erythromycin (Sigma E-6376, in phosphate buffered saline, 1 mg/ml, pH 7.0) was used as a positive control. All the solutions were filtered with 0.2 μm Nalgene syringe filter. Immediately after the bacterial inoculation, group 1 animals were subcutaneously (sc) injected with 0.05M Tris.HCl (no antibiotic) and groups 2 to 5 were given compound X sc at 0.8, 4, 20, and 100 mg/kg, respectively. Group 6 animals received erythromycin sc at 10 mg/kg. These injections were repeated once at 4 hours after the inoculation for the respective groups. The injection volume at each time was 10 ml per kilogram of body weight. The 50% protective dose (PD50) is calculated on the basis of the number of mice surviving 7 days after inoculation.

CC[C@H](C)[C@H](N)C(=O)NS(=O)(=O)OC[C@H]1O[C@@H](CCn2nnc(-c3ccc(Oc4ccccc4)cc3)n2)[C@H](O)[C@@H]1O [Compound X, [S-(R*,R*)]-3,6-anhydro-1,2-dideoxy-1-[5-(4-phenoxyphenyl)-2H-tetrazol-2-yl]-D-allo-heptitol 7-(2-amino-3-methyl-1-oxopentyl)sulfamate]
pIC50 [1]: 8.89
Protective % ([2]; 4 mg/kg sc): 0%
Number of Alive ([2]; 4 mg/kg sc): 0
Protective % ([2]; 20 mg/kg sc): 40%
Number of Alive ([2]; 20 mg/kg sc): 2
Protective % ([2]; 100 mg/kg sc): 100%
Number of Alive ([2]; 100 mg/kg sc): 5
ED50 ([2]; Streptococcus pyogenes, ATCC8668, 168 h, sc, mice surviving 7 days after inoculation, wild type, read-out: PD50 (50% protective dose)): 21.1 mg/kg
